Broadly, the IC50 is the concentration that inhibits the measured activity by half. A high value points to weaker potency in that assay.

Each structure is given as a SMILES string.

The subject of this experiment is IL-2 production by Jurkat cells. Nature of the experiment: Inhibition of IL-2 production by Jurkat cells after PMA/PHA co-stimulation (ELISA). The experiment is classed as cell-based, human. To be noted: PMA and PHA co-stimulation; for IL-2% Inhibition: 24 hours. Here is the method: Compounds of the invention were tested for their activity as inhibitors of T Cell stimulation by measuring the effect on IL-2 production by Jurkat cells following PMA (phorbol 12-myristate 13-acetate) and PHA (phytohemagglutinin) co-stimulation. All new compounds were tested at 0.1 uM, 1 uM and 10 uM. Cyclosporine A (control) was also tested at 0.1 uM, 1 uM and 10 uM. All compounds to be tested were dissolved in dimethyl sulfoxide. Cytotoxicity was evaluated with parallel Alamar Blue plates. Jurkat cells were seeded at 2×10^5 cells per well in 200 μL growth media in a clear, U-bottom 96-well plate. Cells were cultured in RPMI 1640 medium, 10% fetal bovine serum, and L-Glutamine with incubation at 37° C. with 5% carbon dioxide. After 1 hour of incubation the cells were stimulated with PMA (12.5 uL of a 1 ng/mL solution in 1% DMSO/media) and PHA (12.5 uL of a 5 ug/mL solution in PBS). After 24 hours the sample supernatants were harvested and stored at −80° C. A sample of the supernatant (25 uL) was diluted with RPMI (25 uL) and the concentration of human IL-2 was determined by ELISA (Pierce, EH2IL25).
(In general: An ELISA detects its analyte on a solid surface through an enzyme-linked reagent.)

Regarding `CCC1CC(C)C([C@H]2C(=O)N[C@@H](CC)C(=O)N(C)CC(=O)N(C)[C@@H](CC(C)(C)O)C(=O)N[C@@H](C(C)C)C(=O)N(C)[C@@H](CC(C)C)C(=O)N[C@@H](C)C(=O)N[C@H](C)C(=O)N(C)[C@@H](CC(C)C)C(=O)N(C)[C@@H](CC(C)C)C(=O)N(C)[C@@H](C(C)C)C(=O)N2C)O1` (stereo partly drawn) [Example C, 1-[(2S)—N-Methyl-2-[tetrahydro-5-ethyl-3-methyl-2-furanyl]glycine]-4-(4-hydroxy-N-methyl-L-leucine)-cyclosporin A], the “IL-2% Inhibition” value (1 uM) is 16%.
As to `CCC1CC(C)C([C@H]2C(=O)N[C@@H](CC)C(=O)N(C)[C@H](SCCN(C)C)C(=O)N(C)[C@@H](CC(C)(C)O)C(=O)N[C@@H](C(C)C)C(=O)N(C)[C@@H](CC(C)C)C(=O)N[C@@H](C)C(=O)N[C@H](C)C(=O)N(C)[C@@H](CC(C)C)C(=O)N(C)[C@@H](CC(C)C)C(=O)N(C)[C@@H](C(C)C)C(=O)N2C)O1` (stereo partly drawn) [Example F, 1-[(2S)—N-methyl-2-[tetrahydro-5-ethyl-3-methyl-2-furanyl]glycine]-3-[2R-[[2-(dimethylamino)ethyl]thio]-N-methylglycine]-4-(4-hydroxy-N-methyl-L-leucine)-cyclosporin A], the “IL-2% Inhibition” value amounted to 2% (1 uM) and 5% (10 uM).
On to `C=CC1CC(C)C(C2C(=O)NC(CC)C(=O)N(C)CC(=O)N(C)C(CC(C)(C)O)C(=O)NC(C(C)C)C(=O)N(C)C(CC(C)C)C(=O)NC(C)C(=O)NC(C)C(=O)N(C)C(CC(C)C)C(=O)N(C)C(CC(C)C)C(=O)N(C)C(C(C)C)C(=O)N2C)O1` [Example D, 1-[(2S)—N-methyl-2-[tetrahydro-5-ethenyl-3-methyl-2-furanyl]glycine]-4-(4-hydroxy-N-methyl-L-leucine)-cyclosporin A], for which, under “1 uM”, the “IL-2% Inhibition” value amounted to 8%.
Turning to `C=CC1CC(C)C(C2C(=O)NC(CC)C(=O)N(C)C(SCCN(C)C)C(=O)N(C)C(CC(C)(C)O)C(=O)NC(C(C)C)C(=O)N(C)C(CC(C)C)C(=O)NC(C)C(=O)NC(C)C(=O)N(C)C(CC(C)C)C(=O)N(C)C(CC(C)C)C(=O)N(C)C(C(C)C)C(=O)N2C)O1` [Example G, 1-[(2S)—N-methyl-2-[tetrahydro-5-ethenyl-3-methyl-2-furanyl]glycine]-3-[2R-[[2-(dimethylamino)ethyl]thio]-N-methylglycine]-4-(4-hydroxy-N-methyl-L-leucine)-cyclosporin A], the concentration for half-maximal inhibition (IC50) was more than 10 µM.
With `CCC1CC(C)C([C@H]2C(=O)N[C@@H](CC)C(=O)N(C)CC(=O)N(C)[C@@H](CC(C)C)C(=O)N[C@@H](C(C)C)C(=O)N(C)[C@@H](CC(C)C)C(=O)N[C@@H](C)C(=O)N[C@H](C)C(=O)N(C)[C@@H](CC(C)C)C(=O)N(C)[C@@H](CC(C)C)C(=O)N(C)[C@@H](C(C)C)C(=O)N2C)O1` (stereo partly drawn) [Example A, 1-[(2S)—N-Methyl-2-[tetrahydro-5-ethyl-3-methyl-2-furanyl]glycine]-cyclosporin A], the “IL-2% Inhibition” value (1 uM) came to 84%.
